ChEMBL document CHEMBL1151108, “Plant antimutagenic agents, 1. General bioassay and isolation procedures” (J Nat Prod, 1988)

Legend:
Salmonella typhimurium [1] = assay: Toxicity in Salmonella Typhimurium TA98 at 300 ug/plate in presence of liver S9 fraction by Ames test; format: organism-based; settings: salmonella enterica subsp. enterica serovar typhimurium
Salmonella typhimurium [2] = assay: Toxicity in Salmonella Typhimurium TA98 at 150 ug/plate in presence of liver S9 fraction by Ames test; format: organism-based; settings: salmonella enterica subsp. enterica serovar typhimurium

SMILES | Activity (Salmonella typhimurium [1]) | Activity (Salmonella typhimurium [2])
C=C1CCC[C@]2(C)C[C@H]3OC(=O)[C@@H](C)[C@H]3C[C@@H]12 [DIHYDROISOALANTOLACTONE] | Non-toxic | Non-toxic
C=C1C(=O)O[C@@H]2C[C@@]3(C)CCCC(=C)[C@@H]3C[C@H]12 [ISOALANTOLACTONE] | Toxic | Toxic
